# Experimental data as given in PubChem BioAssay (NCI).
#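 Protocol summary: plate cells (96-well), add compound at 5 concentrations, incubate 48 h, interpolate endpoints linearly. GI50 = concentration required for 50% inhibition of growth. The concentration for full growth arrest is given as TGI.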
# Tests used:
# Experiment in all cases: growth of human tumour cells (NCI), 48 h
# [1] = tested on: T-47D breast
# [2] = tested on: SF-539 CNS
# [3] = tested on: HCT-116 colon
# [4] = tested on: SR leukemia
# [5] = tested on: SF-295 CNS
# [6] = tested on: 786-0 renal
# [7] = tested on: MCF7 breast
# [8] = tested on: SK-MEL-28 melanoma
# [9] = tested on: SF-268 CNS
# [10] = tested on: HL-60(TB) leukemia
# [11] = tested on: MDA-MB-231 breast
# [12] = tested on: BT-549 breast
# [13] = tested on: IGROV1 ovarian
# [14] = tested on: UACC-257 melanoma
# [15] = tested on: SW-620 colon
# [16] = tested on: NCI-H23 lung
# [17] = tested on: SK-MEL-2 melanoma
# [18] = tested on: SNB-75 CNS
# [19] = tested on: RPMI-8226 leukemia
# [20] = tested on: CCRF-CEM leukemia
# [21] = tested on: HOP-62 NSCLC
# [22] = tested on: RXF 393 renal
# [23] = tested on: K-562 leukemia
# [24] = tested on: OVCAR-4 ovarian
# [25] = tested on: PC-3 prostate
# [26] = tested on: UACC-62 melanoma
# [27] = tested on: CAKI-1 renal
# [28] = tested on: HCT-15 colon
# [29] = tested on: LOX IMVI melanoma
# [30] = tested on: MOLT-4 leukemia
# [31] = tested on: HS 578T breast
# [32] = tested on: HT29 colon
# [33] = tested on: A498 renal
# [34] = tested on: DU-145 prostate
# [35] = tested on: U251 CNS
# [36] = tested on: SNB-19 CNS
# [37] = tested on: A549 NSCLC
# [38] = tested on: NCI-H226 lung
# [39] = tested on: EKVX NSCLC
# [40] = tested on: HOP-92 NSCLC
# [41] = tested on: OVCAR-3 ovarian
# [42] = tested on: M14 melanoma
# [43] = tested on: NCI-H460 lung
# [44] = tested on: SN12C renal
# [45] = tested on: NCI-H522 lung
# [46] = tested on: SK-OV-3 ovarian
# [47] = tested on: TK-10 renal
# [48] = tested on: ACHN renal
# [49] = tested on: KM12 colon
# [50] = tested on: SK-MEL-5 melanoma
# [51] = tested on: MDA-MB-435
# [52] = tested on: COLO 205 colon
# [53] = tested on: HCC-2998 colon
# [54] = tested on: NCI/ADR-RES ovarian
# [55] = tested on: OVCAR-8 ovarian
# [56] = tested on: UO-31 renal
# [57] = tested on: OVCAR-5 ovarian
smiles,measurement,setting,value
Nc1ccc2c(c1)Cc1cc(Cl)c(Cl)cc1-2,GI50,[1],> 100 µM
same,TGI,[1],> 100 µM
same,GI50,[2],57.3 µM
same,TGI,[2],> 100 µM
same,GI50,[3],6.81 µM
same,TGI,[3],> 100 µM
same,GI50,[4],26.9 µM
same,TGI,[4],> 100 µM
same,GI50,[5],2.25 µM
same,TGI,[5],7.15 µM
same,GI50,[6],> 100 µM
same,TGI,[6],> 100 µM
same,GI50,[7],0.562 µM
same,TGI,[7],> 100 µM
same,GI50,[8],> 100 µM
same,TGI,[8],> 100 µM
same,GI50,[9],> 100 µM
same,TGI,[9],> 100 µM
same,GI50,[10],55 µM
same,TGI,[10],> 100 µM
same,GI50,[11],6.39 µM
same,TGI,[11],> 100 µM
same,GI50,[12],> 100 µM
same,TGI,[12],> 100 µM
same,GI50,[13],17.7 µM
same,TGI,[13],> 100 µM
same,GI50,[14],> 100 µM
same,TGI,[14],> 100 µM
same,GI50,[15],5.43 µM
same,TGI,[15],> 100 µM
same,GI50,[16],> 100 µM
same,TGI,[16],> 100 µM
same,GI50,[17],> 100 µM
same,TGI,[17],> 100 µM
same,GI50,[18],67.8 µM
same,TGI,[18],> 100 µM
same,GI50,[19],57.6 µM
same,TGI,[19],> 100 µM
same,GI50,[20],7.73 µM
same,TGI,[20],> 100 µM
same,GI50,[21],> 100 µM
same,TGI,[21],> 100 µM
same,GI50,[22],6.07 µM
same,TGI,[22],> 100 µM
same,GI50,[23],> 100 µM
same,TGI,[23],> 100 µM
same,GI50,[24],> 100 µM
same,TGI,[24],> 100 µM
same,GI50,[25],> 100 µM
same,TGI,[25],> 100 µM
same,GI50,[26],12.8 µM
same,TGI,[26],> 100 µM
same,GI50,[27],3.76 µM
same,TGI,[27],> 100 µM
same,GI50,[28],6.22 µM
same,TGI,[28],> 100 µM
same,GI50,[29],65.6 µM
same,TGI,[29],> 100 µM
same,GI50,[30],> 100 µM
same,TGI,[30],> 100 µM
same,GI50,[31],5.79 µM
same,TGI,[31],> 100 µM
same,GI50,[32],> 100 µM
same,TGI,[32],> 100 µM
same,GI50,[33],4.78 µM
same,TGI,[33],> 100 µM
same,GI50,[34],6.24 µM
same,TGI,[34],> 100 µM
same,GI50,[35],5.56 µM
same,TGI,[35],> 100 µM
same,GI50,[36],5.96 µM
same,TGI,[36],> 100 µM
same,GI50,[37],7.72 µM
same,TGI,[37],> 100 µM
same,GI50,[38],> 100 µM
same,TGI,[38],> 100 µM
same,GI50,[39],1.94 µM
same,TGI,[39],8.82 µM
same,GI50,[40],97.9 µM
same,TGI,[40],> 100 µM
same,GI50,[41],3.17 µM
same,TGI,[41],87.8 µM
same,GI50,[42],3.55 µM
same,TGI,[42],> 100 µM
same,GI50,[43],5.12 µM
same,TGI,[43],> 100 µM
same,GI50,[44],11.9 µM
same,TGI,[44],> 100 µM
same,GI50,[45],> 100 µM
same,TGI,[45],> 100 µM
same,GI50,[46],8.03 µM
same,TGI,[46],> 100 µM
same,GI50,[47],> 100 µM
same,TGI,[47],> 100 µM
same,GI50,[48],7.06 µM
same,TGI,[48],> 100 µM
same,GI50,[49],7.05 µM
same,TGI,[49],> 100 µM
same,GI50,[50],8.17 µM
same,TGI,[50],> 100 µM
same,GI50,[51],1.77 µM
same,TGI,[51],4.51 µM
same,GI50,[52],22.2 µM
same,TGI,[52],> 100 µM
same,GI50,[53],9.19 µM
same,TGI,[53],> 100 µM
same,GI50,[54],62.2 µM
same,TGI,[54],> 100 µM
same,GI50,[55],> 100 µM
same,TGI,[55],> 100 µM
same,GI50,[56],6.01 µM
same,TGI,[56],> 100 µM
same,GI50,[57],> 100 µM
same,TGI,[57],> 100 µM
